# Legend:
# BJeLR = experiment: Modulatory profiling: Alamar Blue viability, lethal compound cotreated with death modulator (EC50, AUC); type: cell-based, human; design: AUC, modulator BJ.Gd3+ / AUC, modulator BJ.LNAME / AUC, modulator BJ.Lmin / AUC, modulator BJ.3MA / AUC, modulator BJ.ALLN / AUC, modulator BJ.Boc D / AUC, modulator BJ.CHX / AUC, modulator BJ.Co2+ / AUC, modulator BJ.Nec-1 / AUC, modulator BJ.Pepstatin / AUC, modulator BJ.TLCK / AUC, modulator BJ.atoc / AUC, modulator BJ.trolox / AUC, modulator BJ.zVAD: unit not given beside the values; settings: BJeLR cells, modulatory profile value (AUC); for AUC, modulator BJ.3MA: lethal compound cotreated with modulator 3MA; for AUC, modulator BJ.ALLN: lethal compound cotreated with modulator ALLN; for AUC, modulator BJ.Boc D: lethal compound cotreated with modulator Boc D; for AUC, modulator BJ.CHX: lethal compound cotreated with modulator CHX; for AUC, modulator BJ.Co2+: lethal compound cotreated with modulator Co2+; for AUC, modulator BJ.DPQ: lethal compound cotreated with modulator DPQ; for AUC, modulator BJ.Gd3+: lethal compound cotreated with modulator Gd3+; for AUC, modulator BJ.LNAME: lethal compound cotreated with modulator LNAME; for AUC, modulator BJ.Lmin/NAD+: lethal compound cotreated with modulator Lmin/NAD+; for AUC, modulator BJ.Lmin: lethal compound cotreated with modulator Lmin; for AUC, modulator BJ.NAD+: lethal compound cotreated with modulator NAD+; for AUC, modulator BJ.NMMA: lethal compound cotreated with modulator NMMA; for AUC, modulator BJ.Nec-1: lethal compound cotreated with modulator Nec-1; for AUC, modulator BJ.Pepstatin: lethal compound cotreated with modulator Pepstatin; for AUC, modulator BJ.TLCK: lethal compound cotreated with modulator TLCK; for AUC, modulator BJ.atoc: lethal compound cotreated with modulator atoc; for AUC, modulator BJ.trolox: lethal compound cotreated with modulator trolox; for AUC, modulator BJ.zVAD: lethal compound cotreated with modulator zVAD; as to AUC, modulator BJ.3MA: reference of the scale not given here; as to AUC, modulator BJ.ALLN: reference of the scale not given here; as to AUC, modulator BJ.Boc D: reference of the scale not given here; as to AUC, modulator BJ.CHX: reference of the scale not given here; as to AUC, modulator BJ.Co2+: reference of the scale not given here; as to AUC, modulator BJ.DPQ: reference of the scale not given here; as to AUC, modulator BJ.Gd3+: reference of the scale not given here; as to AUC, modulator BJ.LNAME: reference of the scale not given here; as to AUC, modulator BJ.NAD+: reference of the scale not given here; as to AUC, modulator BJ.NMMA: reference of the scale not given here; as to AUC, modulator BJ.Nec-1: reference of the scale not given here; as to AUC, modulator BJ.Pepstatin: reference of the scale not given here; as to AUC, modulator BJ.TLCK: reference of the scale not given here
# HT-1080 = experiment: as above; type: cell-based; design: AUC, modulator HT.3MA / AUC, modulator HT.ALLN / AUC HT.ATA / AUC HT.ActD / AUC HT.BHA / AUC HT.BHT / AUC HT.BocD / AUC HT.CHX / AUC HT.Co2+ / AUC HT.DPQ / AUC HT.EGTA / AUC HT.Lmim / AUC HT.NAD+ / AUC HT.Nec-1 / AUC HT.SP600125 / AUC HT.TLCK / AUC HT.U0126: unit not given beside the values; settings: for AUC HT.ATA: HT-1080, modulator ATA; for AUC HT.ActD: HT-1080, modulator ActD; for AUC HT.BHA: HT-1080, modulator BHA; for AUC HT.BHT: HT-1080, modulator BHT; for AUC HT.BocD: HT-1080, modulator BocD; for AUC HT.CHX: HT-1080, modulator CHX; for AUC HT.Co2+: HT-1080, modulator Co2+; for AUC HT.CspA: HT-1080, modulator CspA; for AUC HT.DPQ: HT-1080, modulator DPQ; for AUC HT.EGTA: HT-1080, modulator EGTA; for AUC HT.Gd3+: HT-1080, modulator Gd3+; for AUC HT.LNAME: HT-1080, modulator LNAME; for AUC HT.Lmim: HT-1080, modulator Lmim; for AUC HT.NAD+: HT-1080, modulator NAD+; for AUC HT.NMMA: HT-1080, modulator NMMA; for HT.atoc (AUC) / HT.bCarotene (AUC) / HT.deferox (AUC) / HT.digoxin (AUC) / HT.trolox (AUC) / HT.zVAD (AUC): HT-1080; for HT.atoc (AUC): modulator atoc; for HT.bCarotene (AUC): modulator bCarotene; for HT.deferox (AUC): modulator deferox; for HT.digoxin (AUC): modulator digoxin; for HT.trolox (AUC): modulator trolox; for HT.zVAD (AUC): modulator zVAD; for AUC, modulator HT.3MA / AUC, modulator HT.ALLN: HT-1080 cells, modulatory profile value (AUC); for AUC, modulator HT.3MA: lethal compound cotreated with modulator 3MA; for AUC, modulator HT.ALLN: lethal compound cotreated with modulator ALLN; as to AUC HT.BHA: reference of the scale not given here; as to AUC HT.EGTA: reference of the scale not given here
smiles,measurement,setting,value
O=C1c2ccccc2-c2onc3ccc(Oc4ccccc4)c1c23 [CIL6],"AUC, modulator BJ.3MA",BJeLR,0.1191
same,"AUC, modulator BJ.ALLN",BJeLR,−0.0496
same,"AUC, modulator BJ.Boc D",BJeLR,−0.05247
same,"AUC, modulator BJ.CHX",BJeLR,0.1353
same,"AUC, modulator BJ.Co2+",BJeLR,0.06961
same,"AUC, modulator BJ.DPQ",BJeLR,0.01365
same,"AUC, modulator BJ.Gd3+",BJeLR,0.006848
same,"AUC, modulator BJ.LNAME",BJeLR,−0.02637
same,"AUC, modulator BJ.Lmin/NAD+",BJeLR,−0.0638
same,"AUC, modulator BJ.Lmin",BJeLR,−0.03874
same,"AUC, modulator BJ.NAD+",BJeLR,0.02657
same,"AUC, modulator BJ.NMMA",BJeLR,0.006287
same,"AUC, modulator BJ.Nec-1",BJeLR,0.01237
same,"AUC, modulator BJ.Pepstatin",BJeLR,0.03711
same,"AUC, modulator BJ.TLCK",BJeLR,−0.01536
same,"AUC, modulator BJ.atoc",BJeLR,0.01482
same,"AUC, modulator BJ.trolox",BJeLR,−0.006777
same,"AUC, modulator BJ.zVAD",BJeLR,−0.003192
same,AUC HT.ATA,HT-1080,0.007654
same,AUC HT.ActD,HT-1080,−0.008928
same,AUC HT.BHA,HT-1080,−0.007636
same,AUC HT.BHT,HT-1080,−0.06114
same,AUC HT.BocD,HT-1080,0.076
same,AUC HT.CHX,HT-1080,0.161
same,AUC HT.Co2+,HT-1080,0.04208
same,AUC HT.CspA,HT-1080,−0.01275
same,AUC HT.DPQ,HT-1080,0.04323
same,AUC HT.EGTA,HT-1080,0.01026
same,AUC HT.Gd3+,HT-1080,−0.02897
same,AUC HT.LNAME,HT-1080,0.0157
same,AUC HT.Lmim,HT-1080,−0.01064
same,AUC HT.NAD+,HT-1080,0.04899
same,AUC HT.NMMA,HT-1080,−0.02292
same,AUC HT.Nec-1,"HT-1080; HT-1080, modulator Nec-1",0.01299
same,AUC HT.Pepstatin,"HT-1080; HT-1080, modulator Pepstatin",0.0188
same,AUC HT.SP600125,"HT-1080; HT-1080, modulator SP600125",−0.01195
same,AUC HT.TLCK,"HT-1080; HT-1080, modulator TLCK",−0.00546
same,AUC HT.U0126,"HT-1080; HT-1080, modulator U0126",0.04846
same,HT.atoc (AUC),HT-1080,0.1204
same,HT.bCarotene (AUC),HT-1080,−0.0173
same,HT.deferox (AUC),HT-1080,0.02051
same,HT.digoxin (AUC),HT-1080,0.009607
same,HT.trolox (AUC),HT-1080,−0.01697
same,HT.zVAD (AUC),HT-1080,−0.01676
same,"AUC, modulator HT.3MA",HT-1080,0.06096
same,"AUC, modulator HT.ALLN",HT-1080,0.04648
O=P(Oc1ccccc1)(Oc1ccccc1)O[C@@H]1C=CS(=O)(=O)C1 [CIL44],"AUC, modulator BJ.3MA",BJeLR,0.05756
same,"AUC, modulator BJ.ALLN",BJeLR,−0.0588
same,"AUC, modulator BJ.Boc D",BJeLR,−0.03963
same,"AUC, modulator BJ.CHX",BJeLR,0.1553
same,"AUC, modulator BJ.Co2+",BJeLR,0.02387
same,"AUC, modulator BJ.DPQ",BJeLR,0.05604
same,"AUC, modulator BJ.Gd3+",BJeLR,0.005556
same,"AUC, modulator BJ.LNAME",BJeLR,0.008981
same,"AUC, modulator BJ.Lmin/NAD+",BJeLR,−0.04975
same,"AUC, modulator BJ.Lmin",BJeLR,0.03065
same,"AUC, modulator BJ.NAD+",BJeLR,−0.04167
same,"AUC, modulator BJ.NMMA",BJeLR,0.02894
same,"AUC, modulator BJ.Nec-1",BJeLR,−0.01119
same,"AUC, modulator BJ.Pepstatin",BJeLR,0.002455
same,"AUC, modulator BJ.TLCK",BJeLR,−0.03963
same,"AUC, modulator BJ.atoc",BJeLR,0.009119
same,"AUC, modulator BJ.trolox",BJeLR,−0.03989
same,"AUC, modulator BJ.zVAD",BJeLR,−0.01682
same,AUC HT.ATA,HT-1080,0.0592
same,AUC HT.ActD,HT-1080,0.01649
same,AUC HT.BHA,HT-1080,−0.02559
same,AUC HT.BHT,HT-1080,−0.1007
same,AUC HT.BocD,HT-1080,−0.0552
same,AUC HT.CHX,HT-1080,0.02874
same,AUC HT.Co2+,HT-1080,−0.04658
same,AUC HT.CspA,HT-1080,−0.01586
same,AUC HT.DPQ,HT-1080,−0.01669
same,AUC HT.EGTA,HT-1080,−0.007267
same,AUC HT.Gd3+,HT-1080,−0.01147
same,AUC HT.LNAME,HT-1080,−0.02505
same,AUC HT.Lmim,HT-1080,−0.007614
same,AUC HT.NAD+,HT-1080,−0.07144
same,AUC HT.NMMA,HT-1080,−0.0419
same,HT.atoc (AUC),HT-1080,0.04386
same,HT.bCarotene (AUC),HT-1080,−0.02012
same,HT.deferox (AUC),HT-1080,0.1041
same,HT.digoxin (AUC),HT-1080,0.01992
same,HT.trolox (AUC),HT-1080,−0.02106
same,HT.zVAD (AUC),HT-1080,0.01751
same,"AUC, modulator HT.3MA",HT-1080,0.07356
same,"AUC, modulator HT.ALLN",HT-1080,0.1392

# From US10947188B2, “Small molecule ferroptosis inducers” (THE TRUSTEES OF COLUMBIA UNIVERSITY IN THE CITY OF NEW YORK, priority 2016, dated 2021)
